Data as given in patent US20150307519A1, “SMALL MOLECULES FOR RESTORING FUNCTION TO P53 CANCER MUTANTS” (THE REGENTS OF THE UNIVERSITY OF CALIFORNIA, priority 2014, published 2015).

Assays:
[1] = system: Saos-2 cells expressing p53^G245S; experiment: Cell count / viability of Saos-2 cells with doxycyclin-inducible p53 G245S; type: cell-based; conditions: FIGS. 5A-5C; for p53 G245S-dependent cancer cell cytotoxicity: 27 hours
Description: ACS chemical biology, doi:10.1021/cb3005929 (2013).

[2] = biological target: T1, G245S DBD (Homo sapiens, UniProt P04637, G245S); experiment: DSF thermal stabilization of G245S DBD; type: binding; conditions: DSF assay
T1 construct: wild-type p53 protein DBD protein (residues 94-312 of the full length)
Protocol: (§1) To determine whether this stabilization was specific for copper, NSC319725 was also tested after addition of Fe(II)Cl2 and ZnCl2. […] NSC635448, […] were also tested for stabilization of G245S DBD and WT DBD in the DSF assay, yielding analogous results.
(§2) An equivalent volume of DMSO was used as a control. […] Sypro Orange stain (Bio-Rad, Hercules, Calif.) at 5,000× stock concentration was diluted to 5× concentration in 20 mM HEPES at pH 7.4 and added to each well of a 96-well plate. All SLS compounds were independently measured for fluorescence background to eliminate false positive results. […] All DSF assays were performed with a Touch RT-PCR system CFX96 (Bio-Rad) with the starting temperature of 4° C. by increasing the temperature of the plate 1.0° C. per min to 94° C. Fluorescence measurements were taken once every minute during all experiments. Tm values for each well, mean Tm values, and 95% confidence intervals were calculated with the program Prism 5 (GraphPad Software, La Jolla, Calif.) by fitting the raw fluorescence data to a Boltzmann sigmoidal curve.

[3] = biological target: T2, WT DBD (wild-type p53 DBD protein) (Homo sapiens, UniProt P04637); experiment: DSF thermal stabilization of WT DBD; type: binding; conditions: DSF assay
T2 construct: wild-type p53 protein DBD protein (residues 94-312 of the full length); made in house; host or cells: Escherichia coli Rosetta 2 (DE3), vector pSE420
Protocol: as §1, §2

| SMILES | reactivation of p53^G245S in cells [1] | effect on Tm of G245S DBD (qualitative) [2] | effect on Tm of WT DBD (qualitative) [3] | p53 G245S-dependent cancer cell cytotoxicity [1] |
| --- | --- | --- | --- | --- |
| Cn1ncc2c(Nc3ccc(Br)cc3)nc(Nc3ccc(Br)cc3)nc21 [NSC11667] | marked efficacy |  |  |  |
| C/C(=N\NC(=S)N(C)C)c1ccccn1 [NSC319725, reference compound] |  | no effect or a slight destabilization | no effect or a slight destabilization | marked |
| NS(=O)(=O)c1nc2nc[nH]c(=O)c2[nH]1 [NSC635448] | marked efficacy | increased the Tm | increased the Tm | marked |
